Results taken from patent US20080175794A1, “Substituted Pyridazinyl- and Pyrimidinyl-Quinolin-4-Ylamine Analogues” (NEUROGEN CORPORATION, priority 2005, published 2008).

These compounds were tested against T1, human capsaicin receptor (Homo sapiens, UniProt Q8NER1) (assay: Calcium mobilization assay, determination of antagonist activity (Example 6)). Conditions: Table III; assay provided in Example 6; cells expressing human capsaicin receptor, capsaicin at EC50.
T1 construct: expressed in transfected cells
Type: cell-based
Summary of the method: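 Stable HEK293 clones expressing full-length human capsaicin receptor, loaded with Fluo-3 AM in KRH buffer pH 7.4 (1–2 h, 37 °C). Test compound (1–5 μM final) preincubated 0.5–6 h at room temperature in the dark, then capsaicin added at its EC50. FLIPR/Fluoroskan calcium signal; IC50 as concentration halving the capsaicin response.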

T1 sequence (Q8NER1 whole entry): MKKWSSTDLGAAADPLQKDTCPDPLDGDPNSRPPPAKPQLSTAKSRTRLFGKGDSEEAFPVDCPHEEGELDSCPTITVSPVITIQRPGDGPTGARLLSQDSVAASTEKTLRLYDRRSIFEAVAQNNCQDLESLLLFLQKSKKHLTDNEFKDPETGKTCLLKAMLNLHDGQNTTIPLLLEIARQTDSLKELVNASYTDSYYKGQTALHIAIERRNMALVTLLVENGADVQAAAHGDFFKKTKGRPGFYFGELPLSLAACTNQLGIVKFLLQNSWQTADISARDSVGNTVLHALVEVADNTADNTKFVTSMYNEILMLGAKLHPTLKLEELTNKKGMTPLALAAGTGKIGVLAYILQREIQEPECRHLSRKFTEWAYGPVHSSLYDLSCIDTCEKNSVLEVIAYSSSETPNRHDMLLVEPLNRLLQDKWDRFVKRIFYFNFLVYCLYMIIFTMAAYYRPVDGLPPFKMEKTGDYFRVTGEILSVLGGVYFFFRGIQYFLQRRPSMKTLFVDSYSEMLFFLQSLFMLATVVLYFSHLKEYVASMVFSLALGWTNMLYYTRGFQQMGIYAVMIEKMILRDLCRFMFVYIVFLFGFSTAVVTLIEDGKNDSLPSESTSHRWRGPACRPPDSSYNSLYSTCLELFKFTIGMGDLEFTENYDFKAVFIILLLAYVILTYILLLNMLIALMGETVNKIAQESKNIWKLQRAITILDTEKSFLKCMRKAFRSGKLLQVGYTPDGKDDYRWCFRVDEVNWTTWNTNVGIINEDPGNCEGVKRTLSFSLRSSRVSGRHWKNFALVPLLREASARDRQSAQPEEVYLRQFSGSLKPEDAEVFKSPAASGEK

IC50, < 1 µM:
FC(F)(F)c1ccc(Nc2ccnc3nc(-c4nnc(NCCCN5CCCC5)cc4C(F)(F)F)cnc23)nc1 [Compound 77, 3-{6-[(3-pyrrolidin-1-ylpropyl)amino]-4-(trifluoromethyl)pyridazin-3-yl}-N-[5-(trifluoromethyl)pyridin-2-yl]pyrido[2,3-b]pyrazin-8-amine]
NC(=O)c1cc(C(F)(F)F)c(-c2cnc3c(Nc4ccc(C(F)(F)F)cn4)ccnc3n2)nn1 [Compound 60, 5-(trifluoromethyl)-6-(8-{[5-(trifluoromethyl)pyridin-2-yl]amino}pyrido[2,3-b]pyrazin-3-yl)pyridazine-3-carboxamide]
CCOC(=O)CN(C)c1cc(C(F)(F)F)c(-c2cnc3c(Nc4ccc(C(F)(F)F)cn4)ccnc3n2)nn1 [Compound 187, ethyl N-methyl-N-[5-(trifluoromethyl)-6-(8-{[5-(trifluoromethyl)pyridin-2-yl]amino}pyrido[2,3-b]pyrazin-3-yl)pyridazin-3-yl]glycinate]
CC(C)Nc1nc(Nc2ccnc3nc(-c4nnccc4C(F)(F)F)cnc23)ccc1C(F)(F)F [Compound 48, N2-isopropyl-3-(trifluoromethyl)-N-~6~-{3-[4-(trifluoromethyl)pyridazin-3-yl]pyrido[2,3-b]pyrazin-8-yl}pyridine-2,6-diamine]
FC(F)(F)c1ccnnc1-c1cnc2c(Nc3cnc4ccccc4n3)ccnc2n1 [Compound 45, N-2-quinoxalinyl-3-[4-(trifluoromethyl)-3-pyridazinyl]pyrido[2,3-b]pyrazin-8-amine]
CN(C)CCOc1cc(C(F)(F)F)c(-c2cnc3c(Nc4ccc(C(F)(F)F)cn4)ccnc3n2)nn1 [Compound 62, 3-{6-[2-(dimethylamino)ethoxy]-4-(trifluoromethyl)pyridazin-3-yl}-N-[5-(trifluoromethyl)pyridin-2-yl]pyrido[2,3-b]pyrazin-8-amine]
CN(C)C1CCCN(c2cc(C(F)(F)F)c(-c3cnc4c(Nc5ccc(C(F)(F)F)cn5)ccnc4n3)nn2)C1 (stereo not drawn) [Compound 132, 3-{6-[3-(dimethylamino)piperidin-1-yl]-4-(trifluoromethyl)pyridazin-3-yl}-N-[5-(trifluoromethyl)pyridin-2-yl]pyrido[2,3-b]pyrazin-8-amine]
CCCN(CCC)CCNc1cc(C(F)(F)F)c(-c2cnc3c(Nc4ccc(C(F)(F)F)cn4)ccnc3n2)nn1 [Compound 83, N,N-dipropyl-N′-[5-(trifluoromethyl)-6-(8-{[5-(trifluoromethyl)pyridin-2-yl]amino}pyrido[2,3-b]pyrazin-3-yl)pyridazin-3-yl]ethane-1,2-diamine]
CC(C)C(C)Nc1cc(C(F)(F)F)c(-c2cnc3c(Nc4ccc(C(F)(F)F)cn4)ccnc3n2)nn1 (stereo not drawn) [Compound 111, 3-{6-[(1,2-dimethylpropyl)amino]-4-(trifluoromethyl)pyridazin-3-yl}-N-[5-(trifluoromethyl)pyridin-2-yl]pyrido[2,3-b]pyrazin-8-amine]
CCCCNc1cc(C(F)(F)F)c(-c2cnc3c(Nc4ccc(C(F)(F)F)cn4)ccnc3n2)nn1 [Compound 104, 3-[6-(butylamino)-4-(trifluoromethyl)pyridazin-3-yl]-N-[5-(trifluoromethyl)pyridin-2-yl]pyrido[2,3-b]pyrazin-8-amine]
NC(=O)CNc1cc(C(F)(F)F)c(-c2cnc3c(Nc4ccc(C(F)(F)F)cn4)ccnc3n2)nn1 [Compound 113, N2-[5-(trifluoromethyl)-6-(8-{[5-(trifluoromethyl)pyridin-2-yl]amino}pyrido[2,3-b]pyrazin-3-yl)pyridazin-3-yl]glycinamide]
CCN(CCO)c1cc(C(F)(F)F)c(-c2cnc3c(Nc4ccc(C(F)(F)F)cn4)ccnc3n2)nn1 [Compound 194]
CN1CCC(N(C)c2cc(C(F)(F)F)c(-c3cnc4c(Nc5ccc(C(F)(F)F)cn5)ccnc4n3)nn2)C1 (stereo not drawn) [Compound 97, 3-{6-[methyl(1-methylpyrrolidin-3-yl)amino]-4-(trifluoromethyl)pyridazin-3-yl}-N-[5-(trifluoromethyl)pyridin-2-yl]pyrido[2,3-b]pyrazin-8-amine]
CCCC(CO)Nc1cc(C(F)(F)F)c(-c2cnc3c(Nc4ccc(C(F)(F)F)cn4)ccnc3n2)nn1 (stereo not drawn) [Compound 119, 2-{[5-(trifluoromethyl)-6-(8-{[5-(trifluoromethyl)pyridin-2-yl]amino}pyrido[2,3-b]pyrazin-3-yl)pyridazin-3-yl]amino}pentan-1-ol]
CCC(CO)Nc1cc(C(F)(F)F)c(-c2cnc3c(Nc4ccc(C(F)(F)F)cn4)ccnc3n2)nn1 (stereo not drawn) [Compound 118, 2-{[5-(trifluoromethyl)-6-(8-{[5-(trifluoromethyl)pyridin-2-yl]amino}pyrido[2,3-b]pyrazin-3-yl)pyridazin-3-yl]amino}butan-1-ol]
FC(F)(F)c1ccc(Nc2ccnc3nc(-c4nnc(NCC5CCCO5)cc4C(F)(F)F)cnc23)nc1 (stereo not drawn) [Compound 112, 3-{6-[(tetrahydrofuran-2-ylmethyl)amino]-4-(trifluoromethyl)pyridazin-3-yl}-N-[5-(trifluoromethyl)pyridin-2-yl]pyrido[2,3-b]pyrazin-8-amine]
CCN1CCN(c2cc(C(F)(F)F)c(-c3cnc4c(Nc5ccc(C(F)(F)F)cn5)ccnc4n3)nn2)CC1 [Compound 88, 3-[6-(4-ethylpiperazin-1-yl)-4-(trifluoromethyl)pyridazin-3-yl]-N-[5-(trifluoromethyl)pyridin-2-yl]pyrido[2,3-b]pyrazin-8-amine]
CN(C)c1cc(C(F)(F)F)c(-c2cnc3c(Nc4ccc(C(F)(F)F)cn4)ccnc3n2)nn1 [Compound 54, 3-[6-(dimethylamino)-4-(trifluoromethyl)pyridazin-3-yl]-N-[5-(trifluoromethyl)pyridin-2-yl]pyrido[2,3-b]pyrazin-8-amine]
FC(F)(F)c1ccc(Nc2ccnc3nc(-c4nnc(N5CCOCC5)cc4C(F)(F)F)cnc23)nc1 [Compound 53, 3-[6-morpholin-4-yl-4-(trifluoromethyl)pyridazin-3-yl]-N-[5-(trifluoromethyl)pyridin-2-yl]pyrido[2,3-b]pyrazin-8-amine]
CCN(C)c1cc(C(F)(F)F)c(-c2cnc3c(Nc4ccc(C(F)(F)F)cn4)ccnc3n2)nn1 [Compound 180, 3-{6-[ethyl(methyl)amino]-4-(trifluoromethyl)pyridazin-3-yl}-N-[5-(trifluoromethyl)pyridin-2-yl]pyrido[2,3-b]pyrazin-8-amine]
CCN(CC)CCNc1cc(C(F)(F)F)c(-c2cnc3c(Nc4ccc(C(F)(F)F)cn4)ccnc3n2)nn1 [Compound 70, N,N-diethyl-N′-[5-(trifluoromethyl)-6-(8-{[5-(trifluoromethyl)pyridin-2-yl]amino}pyrido[2,3-b]pyrazin-3-yl)pyridazin-3-yl]ethane-1,2-diamine]
CC(C)(C)Nc1cc(C(F)(F)F)c(-c2cnc3c(Nc4ccc(C(F)(F)F)cn4)ccnc3n2)nn1 [Compound 161, 3-[6-(tert-butylamino)-4-(trifluoromethyl)pyridazin-3-yl]-N-[5-(trifluoromethyl)pyridin-2-yl]pyrido[2,3-b]pyrazin-8-amine]
COc1nc(Nc2ccnc3nc(-c4nnccc4C(F)(F)F)cnc23)ccc1C(F)(F)F [Compound 49, N-[6-methoxy-5-(trifluoromethyl)pyridin-2-yl]-3-[4-(trifluoromethyl)pyridazin-3-yl]pyrido[2,3-b]pyrazin-8-amine]
CCN(CCN(C)C)c1cc(C(F)(F)F)c(-c2cnc3c(Nc4ccc(C(F)(F)F)cn4)ccnc3n2)nn1 [Compound 94, N-ethyl-N′,N′-dimethyl-N-[5-(trifluoromethyl)-6-(8-{[5-(trifluoromethyl)pyridin-2-yl]amino}pyrido[2,3-b]pyrazin-3-yl)pyridazin-3-yl]ethane-1,2-diamine]
CCN(CC)CCCNc1cc(C(F)(F)F)c(-c2cnc3c(Nc4ccc(C(F)(F)F)cn4)ccnc3n2)nn1 [Compound 73, N,N-diethyl-N′-[5-(trifluoromethyl)-6-(8-{[5-(trifluoromethyl)pyridin-2-yl]amino}pyrido[2,3-b]pyrazin-3-yl)pyridazin-3-yl]propane-1,3-diamine]
C#CCN(C)c1cc(C(F)(F)F)c(-c2cnc3c(Nc4ccc(C(F)(F)F)cn4)ccnc3n2)nn1 [Compound 125, 3-{6-[methyl(prop-2-yn-1-yl)amino]-4-(trifluoromethyl)pyridazin-3-yl}-N-[5-(trifluoromethyl)pyridin-2-yl]pyrido[2,3-b]pyrazin-8-amine]
CS(=O)(=O)c1ccc(Nc2ccnc3nc(-c4nnccc4C(F)(F)F)cnc23)nc1 [Compound 47, N-[5-(methylsulfonyl)-2-pyridinyl]-3-[4-(trifluoromethyl)-3-pyridazinyl]pyrido[2,3-b]pyrazin-8-amine]
FC(F)(F)c1ccc(Nc2ccnc3nc(-c4nnc(NC5CCCCC5)cc4C(F)(F)F)cnc23)nc1 [Compound 110, 3-[6-(cyclohexylamino)-4-(trifluoromethyl)pyridazin-3-yl]-N-[5-(trifluoromethyl)pyridin-2-yl]pyrido[2,3-b]pyrazin-8-amine]

Same assay, conditions: assay provided in Example 6; cells expressing human capsaicin receptor, capsaicin at EC50

IC50, < 1 µM:
FC(F)(F)c1ccc(Nc2ccnc3nc(-c4nnccc4C(F)(F)F)ccc23)nc1 [Compound 1, N-[5-(Trifluoromethyl)pyridin-2-yl]-7-[4-(trifluoromethyl)pyridazin-3-yl]-1,8-naphthyridin-4-amine]
FC(F)(F)c1ccc(Nc2ccnc3nc(-c4nnccc4C(F)(F)F)cnc23)nc1 [Compound 2, N-[5-(Trifluoromethyl)pyridin-2-yl]-3-[4-(trifluoromethyl)pyridazin-3-yl]pyrido[2,3-b]pyrazin-8-amine]
